Tests used:
3T3-L1 adipocytes [1] = assay: 3H-thymidine incorporation assay, proliferation of 3T3-L1 adipocytes; format: cell-based; settings: 3T3-L1 cells
Description: 3T3-L1 pre-adipocytes were purchased from American Type Culture Collection (ATCC; Manassas, VA, USA). The pre-adipocytes were maintained in Dulbecco's modified Eagle's medium (DMEM; Hyclone, South Logan, UT, USA), and supplemented with 10% newborn calf serum (Hyclone) and antibiotics (Hyclone) at 37° C. in 5% CO2. To induce adipocyte differentiation, the pre-adipocytes were plated at 24-well plates. After confluence, the medium was changed and 10 μg/ml insulin, 1 μM DEX and 0.5 mM IBMX was added. Two days later the media were changed to the basal medium supplemented with 10% FBS and 10 μg/ml insulin. The media were replaced every 2 days for a period of 8-14 days. To evaluate cell proliferation, ^3H-thymidine incorporation assay was used. The 3T3-L1 cells (5,000 cells/well) were incubated with 5 or 10 nM CF102 96-well plate for 48 hours. Each well was pulsed with […] ^3H-thymidine for the last 24 hours. Cells were harvested and the ^3H-thymidine uptake was determined in an LKB liquid scintillation counter (LKB, Piscataway, NJ, USA).

3T3-L1 adipocytes [2] = assay: Oil-Red-O staining, accumulation of lipid droplets in 3T3-L1 adipocytes; format: cell-based; settings: 5 nM CF102, 48 h, p=0.01
Description: Pre-adipocytes were incubated in a differentiated medium (DMEM high glucose+10% FBS) containing 10 μg/ml insulin, 1 μM DEX and 0.5 mM IBMX and treated with 5 nM CF102 for 48 h to evaluate its potential anti-adipogenic effect. The accumulation of lipid droplets was evaluated by staining with Oil-Red-O. Briefly, cells were washed with PBS, incubated with 3.7% HCHO for 1 hr and then, incubated with Oil-Red-O solution for 45 min. Cells were washed very well to remove the excess of Oil-Red-O, visualized and photographed under an Olympus microscope with a Leica camera. For the quantification of lipid accumulation, cells were dissolved in isopropanol and the optical density was read on a Dynatech Corp. Microelisa reader (Chantilly, VA) at 595 nm. The degree accumulation of lipid droplets was proportional to the optical density.

[3] = Body weight in diet-induced obesity mouse model (HFD vs. regular diet); format: in vivo, C57BL/6J mice; settings: HFD 12 weeks, then 100 μg/Kg daily oral for 4 weeks
Description: Because complications from obesity such as diabetes and cardiovascular disease usually require decades, surrogate animal models are important for studying the molecular aspects of obesity and its pathophysiological effects. One of these models that are gaining increasing attention is the diet-induced obesity model in mouse. The present protocol is designed to evaluate effects of CF102 in an in vivo mouse model of Diet-Induced obesity. The mice utilized are C57BL/6J males, 4-6 weeks old (The Jackson Laboratory, stock 000664). 60 kcal % fat diet (Research Diets, D12492i) Group I-II: Naïve animals (n=20) were fed with a regular diet, served as a control group and were defined as ‘Lean Diet’ After 12 weeks, mice were divided into 2 groups (n=10 per group), the first was treated with a daily oral administration of CF102 (Can-Fite BioPharma, Cat #A14402-10; 100 μg/Kg) for 4 weeks and the second with vehicle only. Group III-IV—Naïve mice (n=20) were fed with HFD for 12 weeks. After 12 weeks, mice were divided into 2 groups (n=10 per group), the first was treated with daily oral administration of CF102 (Can-Fite BioPharma, Cat #A14402-10; 100 μg/Kg) for 4 weeks and the second with vehicle only.

[4] = Body weight in STZ-induced diabetic rat model; format: in vivo, Sprague Dawley rats; settings: STZ diabetic rats, 100 μg/kg orally twice daily for five days
Description: Diabetes is one of the complications of obesity. Therefore, the effect of an A3AR ligand on body weight in a diabetic model was also evaluated.
Sprague Dawley male rats (8-10 week old) were administered IP with Streptozotocin (STZ) at a dose level of 60 mg/kg in citrate buffer to create a diabetic model. Only animals with blood glucose level higher than 250 mg/dL were included in the study. CF602, an allosteric A3AR ligand was administered orally twice daily for five days at a dose of 100 μg/kg. Body weight was monitored after 5 days.

SMILES	reduction of adipocyte proliferation compared to the control measurement (3T3-L1 adipocytes [1]; 5 nM CF102, 48 hours)	reduction of adipocyte proliferation compared to the control measurement (3T3-L1 adipocytes [1]; 10 nM CF102, 48 hours) [%]	lipid accumulation (OD value at 595 nm) vs. vehicle treated control (3T3-L1 adipocytes [2])	weight loss, mice under HFD [3]	weight change from baseline (body weight) [4]
CNC(=O)[C@H]1O[C@@H](n2cnc3c(NCc4cccc(I)c4)nc(Cl)nc32)[C@H](O)[C@@H]1O [CF102, 2-chloro-N^6-(3-iodobenzyl)-adenosine-5′-N-methyluronamide]	more than 20%	> 40	inhibition in lipid accumulation	significant (p<0.001) weight loss effect	–
Clc1ccc(Nc2nc3ccccc3c3[nH]c(C4CCCCC4)nc23)cc1Cl [CF602, N-(3,4-Dichloro-phenyl)-2-cyclohexyl-1H-imidazo[4,5-c]quinolin-4-amine]	–	–	–	–	significant (p<0.03) decrease in body weight

From US12213990B2, “A3 adenosine receptor ligand for use for achieving a fat loss effect” (CAN-FITE BIOPHARMA LTD., priority 2019, dated 2025)
